Measured values from patent US20210196719A1, “USE OF CDK4/6 INHIBITOR IN COMBINATION WITH EGFR INHIBITOR IN THE PREPARATION OF MEDICAMENT FOR TREATING TUMOR DISEASES” (JIANGSU HENGRUI MEDICINE CO., LTD., priority 2018, published 2021).
Like-named read-outs stand apart in the source and are kept apart here.

What was measured:
[1] = tested on: human non-small cell lung adenocarcinoma cells (NCI-H1975); experiment: Proliferation inhibition of NCI-H1975 cells (SRB method, 7 days); type: cell-based; settings: 168 h, read-out: Inhibition rate (%)
[2] = tested on: human lung cancer NCI-H1975 transplanted tumor; experiment: Human lung cancer NCI-H1975 transplanted tumor model of nude mice; settings: for Tumor volume (mm^3) D 1: D 1 (at grouping); for Tumor volume (mm^3) D 1 / Tumor weight / RTV (relative tumor volume) / Tumor volume (mm^3) D 22: x ± SE; for Tumor weight: D 22, after sacrifice; for T/C(%) (relative tumor growth rate): TRTV/CRTV; for RTV (relative tumor volume): Vt/V0; for Tumor volume (mm^3) D 22: intragastric q.d. 21 days, gefitinib 30, drug A 100(50), drug B 5 mg/kg
[3] = mouse, in vivo
[4] = Body weight of nude mice in the NCI-H1975 transplanted tumor study; settings: x ± SE

Row | Structure (SMILES) | inhibition at 0.005 µM ([1]; Drug B alone 5 nM) [%] | inhibition at 0.01 µM ([1]; Drug B alone 10 nM) [%] | Tumor volume (mm^3) D 1 [2] [mm^3] | Tumor weight [2] [g] | T/C(%) (relative tumor growth rate) ([2]; D 22) | RTV (relative tumor volume) ([2]; D 22) | IR (%) (tumor inhibition percentage) ([2]; D 22, by tumor weight vs control) | Tumor volume (mm^3) D 22 ([2]; D 22) [mm^3] | Average body weight (g) D 1 [3] [g] | Average body weight (g) D 1 ([4]; D 1, n=3) [g] | Average body weight (g) D 22 ([4]; D 22, intragastric q.d. 21 days, gefitinib 30, drug A 100(50), drug B 5 mg/kg) [g]
1 | C=CC(=O)Nc1cc(Nc2nccc(-c3cn(C4CC4)c4ccccc34)n2)c(OC)cc1N(C)CCN(C)C [Drug B] | 50.3 | 53.8 | 130 ± 44 | 0.1091 ± 0.0621 | 26.14 | 1.25±0.53 | 81.69 | 125±58 | 22.8 ± 0.7 | – | –
2 | COc1cc2ncnc(Nc3ccc(F)c(Cl)c3)c2cc1OCCCN1CCOCC1 [Gefitinib, gefitinib, reference compound] | – | – | 130 ± 41 | 0.4097 ± 0.1605 | 66.81 | 3.18±0.65 | – | 477±162 | – | 21.8 ± 0.6 | 24.5 ± 0.8
